# Laboratory results: ChEMBL document CHEMBL4024712, “Synthesis, stability and mechanistic studies of potent anticryptococcal hexapeptides” (Eur J Med Chem, 2017)
# The source made the active and inactive calls. No cut-off for these calls is given here. Non-standard residues stand in square brackets, D forms with d. Residues, ends and D or L forms follow the SMILES beside them. His(τ-Bzl) = N[C@@H](Cc1cn(Cc2ccccc2)cn1)C(=O)O; Phe(4-NH2) = Nc1ccc(C[C@H](N)C(=O)O)cc1; Phe(4-Me) = Cc1ccc(C[C@H](N)C(=O)O)cc1; 1Nal = N[C@@H](Cc1cccc2ccccc12)C(=O)O; Bta = N[C@@H](Cc1csc2ccccc12)C(=O)O; Cha = N[C@@H](CC1CCCCC1)C(=O)O; Orn = NCCC[C@H](N)C(=O)O
# Experiments:
# Candida albicans [1] = assay: Fungicidal activity against Candida albicans ATCC 90028 after 18 to 24 hrs by Alamar blue assay; assay type: functional
# Staphylococcus aureus [2] = assay: Bactericidal activity against Staphylococcus aureus ATCC 29213 by CLSI method; assay type: functional
# Pichia kudriavzevii [3] = assay: Antifungal activity against Candida krusei ATCC 6258 after 18 to 24 hrs by Alamar blue assay; assay type: functional
# Nakaseomyces glabratus [4] = assay: Fungicidal activity against Candida glabrata ATCC 90030 after 18 to 24 hrs by Alamar blue assay; assay type: functional
# Nakaseomyces glabratus [5] = assay: Antifungal activity against Candida glabrata ATCC 90030 after 18 to 24 hrs by Alamar blue assay; assay type: functional
# [6] = test system: Mycobacterium intracellulare; assay: Anti-bacterial activity against Mycobacterium intracellulare ATCC 23068 after 68 to 72 hrs by Alamar blue assay; assay type: functional, cell-based
# Cryptococcus neoformans [7] = assay: Antifungal activity against Cryptococcus neoformans ATCC 90113 after 68 to 72 hrs by Alamar blue assay; assay type: functional
# Candida albicans [8] = assay: Antifungal activity against Candida albicans ATCC 90028 after 18 to 24 hrs by Alamar blue assay; assay type: functional; conditions: for MIC: Candida albicans, ATCC 90028
# Aspergillus fumigatus [9] = assay: Fungicidal activity against Aspergillus fumigatus ATCC 90906 after 68 to 72 hrs by Alamar blue assay; assay type: functional
# Staphylococcus aureus [10] = assay: Anti-bacterial activity against methicillin-resistant Staphylococcus aureus ATCC 33591 by CLSI method; assay type: functional
# Pseudomonas aeruginosa = assay: Anti-bacterial activity against Pseudomonas aeruginosa ATCC 27853 by CLSI method; assay type: functional
# Vero = assay: Cytotoxicity against African green monkey Vero cells up to 10 ug/ml after 48 hrs by neutral red dye based assay; assay type: cell-based; conditions: chlorocebus sabaeus
# Staphylococcus aureus [11] = assay: Anti-bacterial activity against Staphylococcus aureus ATCC 29213 by CLSI method; assay type: functional
# Staphylococcus aureus [12] = assay: Bactericidal activity against methicillin-resistant Staphylococcus aureus ATCC 33591 by CLSI method; assay type: functional
# Aspergillus fumigatus [13] = assay: Antifungal activity against Aspergillus fumigatus ATCC 90906 after 68 to 72 hrs by Alamar blue assay; assay type: functional
# Pichia kudriavzevii [14] = assay: Fungicidal activity against Candida krusei ATCC 6258 after 18 to 24 hrs by Alamar blue assay; assay type: functional
# Escherichia coli [15] = assay: Bactericidal activity against Escherichia coli ATCC 35218 by CLSI method; assay type: functional
# Cryptococcus neoformans [16] = assay: Fungicidal activity against Cryptococcus neoformans ATCC 90113 after 68 to 72 hrs by Alamar blue assay; assay type: functional
# Escherichia coli [17] = assay: Anti-bacterial activity against Escherichia coli ATCC 35218 by CLSI method; assay type: functional; conditions: Escherichia coli, ATCC 35218; for IC50: read-out: IC50
# [18] = Selectivity index ratio of cytotoxic concentration against African green monkey Vero cells to IC50 for Cryptococcus neoformans ATCC 90113; assay type: toxicity; conditions: read-out: Selectivity Index
# [19] = Proteolytic stability assessed as trypsin (unknown origin)-mediated compound hydrolysis at compound to trypsin ratio of 0.5 to […] measured after 24 hrs by RP-HPLC method; assay type: ADME; conditions: human
# Lipid bilayer [20] = assay: Binding affinity to EYPC/EYPG small unilamellar vesicles at 0.1 uM by tryptophan fluorescence quenching assay
# Lipid bilayer [21] = assay: Binding affinity to EYPC/cholesterol small unilamellar vesicles at 0.1 uM by tryptophan fluorescence quenching assay; assay type: ADME
# Cryptococcus neoformans [22] = assay: Induction of cell lysis in Cryptococcus neoformans ATCC 90113 biofilm assessed as cell perturbation at MIC after 1 hr by osmium tetroxide staining based scanning electron microscopic method; assay type: functional
# Cryptococcus neoformans [23] = assay: Induction of cell lysis in Cryptococcus neoformans ATCC 90113 biofilm assessed as loss of cell wall at MIC after 1 hr by photungstic acid/ammonium molybdate/uranyl acetatebased scanning based transmission electron microscopic method; assay type: functional
# Cryptococcus neoformans [24] = assay: Induction of cell lysis in Cryptococcus neoformans ATCC 90113 biofilm assessed as corrugated cells at MIC after 1 hr by osmium tetroxide staining based scanning electron microscopic method; assay type: functional
# [25] = Nakaseomyces glabratus, ATCC 90030
# [26] = Staphylococcus aureus, ATCC 33591
# [27] = Staphylococcus aureus, ATCC 29213
# [28] = Aspergillus fumigatus, ATCC 90906
# [29] = Pichia kudriavzevii, ATCC 6258, read-out: IC50
Structure (SMILES),MFC (Candida albicans [1]),MBC (Staphylococcus aureus [2]),"MIC (Pichia kudriavzevii [3]; Pichia kudriavzevii, ATCC 6258)",MFC (Nakaseomyces glabratus [4]),MIC (Nakaseomyces glabratus [5]; [25]),IC50 [6],MIC (Cryptococcus neoformans [7]),MIC (Candida albicans [8]),MFC (Aspergillus fumigatus [9]),MIC (Staphylococcus aureus [10]; [26]),IC50 (Pseudomonas aeruginosa),Activity (Vero),MIC (Staphylococcus aureus [11]; [27]),MBC (Staphylococcus aureus [12]),MIC (Aspergillus fumigatus [13]; [28]),IC50 (Pichia kudriavzevii [3]; [29]),MFC (Pichia kudriavzevii [14]),MFC (Cryptococcus neoformans [16]),IC50 (Nakaseomyces glabratus [5]),IC50 (Escherichia coli [17]),other results
NCCC[C@H](N)C(=O)N[C@H](Cc1c[nH]c2ccccc12)C(=O)N[C@@H](CC1CCCCC1)C(=O)N[C@@H](Cc1cccc2ccccc12)C(=O)N[C@H](Cc1ccccc1)C(=O)N[C@@H](Cc1cn(Cc2ccccc2)cn1)C(N)=O (H-[Orn][dW][Cha][1Nal][dF][His(τ-Bzl)]-NH2),20 µg/mL,10 µg/mL,10 µg/mL,20 µg/mL,20 µg/mL,Not Active,2.5 µg/mL,20 µg/mL,20 µg/mL,10 µg/mL,Not Active,Non-Toxic,10 µg/mL,20 µg/mL,–,–,–,–,–,–,–
NCCC[C@H](N)C(=O)N[C@H](Cc1c[nH]c2ccccc12)C(=O)N[C@@H](CC1CCCCC1)C(=O)N[C@@H](Cc1csc2ccccc12)C(=O)N[C@H](Cc1ccccc1)C(=O)N[C@@H](Cc1cn(Cc2ccccc2)cn1)C(N)=O (H-[Orn][dW][Cha][Bta][dF][His(τ-Bzl)]-NH2),–,10 µg/mL,10 µg/mL,10 µg/mL,10 µg/mL,Not Active,–,10 µg/mL,10 µg/mL,10 µg/mL,–,Non-Toxic,–,20 µg/mL,10 µg/mL,6.51 µg/mL,10 µg/mL,1.25 µg/mL,–,–,MBC (Escherichia coli [15]): 20 µg/mL
NCCC[C@H](N)C(=O)N[C@H](Cc1c[nH]c2ccccc12)C(=O)N[C@@H](CC1CCCCC1)C(=O)N[C@@H](CC1CCCCC1)C(=O)N[C@H](Cc1ccccc1)C(=O)N[C@@H](Cc1cn(Cc2ccccc2)cn1)C(N)=O (H-[Orn][dW][Cha][Cha][dF][His(τ-Bzl)]-NH2),10 µg/mL,–,10 µg/mL,–,–,–,1.25 µg/mL,10 µg/mL,20 µg/mL,–,Not Active,Non-Toxic,10 µg/mL,20 µg/mL,20 µg/mL,–,10 µg/mL,–,Not Active,10 µg/mL,MIC (Escherichia coli [17]): 20 µg/mL; MBC (Escherichia coli [15]): 20 µg/mL
Cc1ccc(C[C@H](NC(=O)[C@@H](Cc2ccccc2)NC(=O)[C@@H](Cc2c[nH]c3ccccc23)NC(=O)[C@@H](N)CCCN)C(=O)N[C@H](Cc2ccccc2)C(=O)N[C@@H](CCCN)C(N)=O)cc1 (H-[Orn][dW][dF][Phe(4-Me)][dF][Orn]-NH2),–,–,20 µg/mL,–,–,Not Active,0.63 µg/mL,–,–,–,Not Active,Non-Toxic,–,–,–,15.5 µg/mL,20 µg/mL,0.63 µg/mL,Not Active,16.5 µg/mL,selectivity ratio [18]: 21 to 25; IC50 (Aspergillus fumigatus [13]): Not Active; Stability [19]: Stable; IC50 (Cryptococcus neoformans [7]): 0.46 µg/mL; IC50 (Candida albicans [8]): Not Active; IC50 (Staphylococcus aureus [10]): Not Active; Activity (Lipid bilayer [20]): Active; Activity (Lipid bilayer [21]): Non-Toxic; IC50 (Staphylococcus aureus [11]): Not Active
Cc1ccc(C[C@H](NC(=O)[C@@H](Cc2ccccc2)NC(=O)[C@@H](Cc2c[nH]c3ccccc23)NC(=O)[C@@H](N)CCCN)C(=O)N[C@H](Cc2ccccc2)C(=O)N[C@@H](Cc2ccc(N)cc2)C(N)=O)cc1 (H-[Orn][dW][dF][Phe(4-Me)][dF][Phe(4-NH2)]-NH2),–,–,–,–,–,Not Active,5 µg/mL,–,–,–,Not Active,Non-Toxic,–,–,–,–,–,5 µg/mL,Not Active,19.5 µg/mL,"IC50 (Aspergillus fumigatus [13]): Not Active; Activity (Cryptococcus neoformans [22]): Active; IC50 (Pichia kudriavzevii [3]): Not Active; Activity (Cryptococcus neoformans [23]): Active; IC50 (Cryptococcus neoformans [7]): 4.73 µg/mL; IC50 (Candida albicans [8]): Not Active; IC50 (Staphylococcus aureus [10]; Staphylococcus aureus, ATCC 33591, read-out: IC50): > 20 µg/mL; Activity (Cryptococcus neoformans [24]): Active; Activity (Lipid bilayer [20]): Active; Activity (Lipid bilayer [21]): Non-Toxic; IC50 (Staphylococcus aureus [11]; Staphylococcus aureus, ATCC 29213, read-out: IC50): > 20 µg/mL"
C[C@@H]1[C@H](O)[C@@H](C)/C=C/C=C/C=C/C=C/C=C/C=C/C=C/[C@H](O[C@@H]2O[C@H](C)[C@@H](O)[C@H](N)[C@@H]2O)C[C@@H]2O[C@](O)(C[C@@H](O)C[C@@H](O)[C@H](O)CC[C@@H](O)C[C@@H](O)CC(=O)O[C@H]1C)C[C@H](O)[C@H]2C(=O)O [AMPHOTERICIN B],–,–,–,–,0.63 µg/mL,–,–,–,5 µg/mL,–,–,–,–,–,–,–,–,–,–,–,"IC50 (Aspergillus fumigatus [13]; Aspergillus fumigatus, ATCC 90906, read-out: IC50): 1.2 µg/mL; IC50 (Nakaseomyces glabratus [5]; Nakaseomyces glabratus, ATCC 90030, read-out: IC50): 0.34 µg/mL"
